In PubChem BioAssay AID1645862 (Buhrlage Lab, Dana-Farber Cancer Institute and Novartis …, 2021):
pIC50: −log10 of the molar value. Calls of active or inactive are those of the source. No rule for the calls is given here.

Biological target: Ubiquitin carboxyl-terminal hydrolase 8 (Homo sapiens) (UniProt P40818)
Assay: Ubiquitin-specific protease 8 inhibitors, concentration-effect, biochemical, validation of initial actives (AID 1645862);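 also: potency reflects inhibition of USP8 cleavage of a ubiquitin rhodamine substrate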
Conditions: recombinant USP8 deubiquitinase activity assay

Chain of Ubiquitin carboxyl-terminal hydrolase 8 (Homo sapiens) (P40818 whole entry, looked up): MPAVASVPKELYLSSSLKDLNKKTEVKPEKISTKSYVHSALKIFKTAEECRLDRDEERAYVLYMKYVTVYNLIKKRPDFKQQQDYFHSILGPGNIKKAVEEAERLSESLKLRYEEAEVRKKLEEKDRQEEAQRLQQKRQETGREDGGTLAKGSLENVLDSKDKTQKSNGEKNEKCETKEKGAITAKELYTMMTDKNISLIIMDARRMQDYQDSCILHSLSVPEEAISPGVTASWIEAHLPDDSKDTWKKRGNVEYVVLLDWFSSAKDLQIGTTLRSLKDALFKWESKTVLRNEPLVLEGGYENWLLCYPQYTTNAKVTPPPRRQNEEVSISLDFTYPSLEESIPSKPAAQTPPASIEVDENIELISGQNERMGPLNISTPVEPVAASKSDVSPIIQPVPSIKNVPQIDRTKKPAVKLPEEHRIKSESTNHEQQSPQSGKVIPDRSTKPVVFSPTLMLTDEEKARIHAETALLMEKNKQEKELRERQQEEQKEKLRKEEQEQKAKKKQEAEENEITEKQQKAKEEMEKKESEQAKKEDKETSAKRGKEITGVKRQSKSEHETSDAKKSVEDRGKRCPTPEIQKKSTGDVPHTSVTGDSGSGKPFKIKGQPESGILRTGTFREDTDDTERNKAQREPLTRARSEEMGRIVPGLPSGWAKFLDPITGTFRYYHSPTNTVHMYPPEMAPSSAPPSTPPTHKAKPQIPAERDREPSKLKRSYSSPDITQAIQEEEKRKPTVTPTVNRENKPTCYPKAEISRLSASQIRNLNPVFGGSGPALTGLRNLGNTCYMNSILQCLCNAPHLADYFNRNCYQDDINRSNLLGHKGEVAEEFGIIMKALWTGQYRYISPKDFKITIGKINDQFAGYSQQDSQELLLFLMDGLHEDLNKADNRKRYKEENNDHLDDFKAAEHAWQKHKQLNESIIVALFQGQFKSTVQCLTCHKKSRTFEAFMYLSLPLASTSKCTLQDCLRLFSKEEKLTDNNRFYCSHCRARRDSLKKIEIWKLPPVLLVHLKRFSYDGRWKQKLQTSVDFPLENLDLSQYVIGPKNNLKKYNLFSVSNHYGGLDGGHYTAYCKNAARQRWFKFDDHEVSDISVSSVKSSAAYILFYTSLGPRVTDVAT

Row | IC50 | pIC50 | SMILES
1 | > 40 µM (inactive) | – | Cc1ccc(C(=O)O)cc1NC(=O)C(Sc1cccc(NC(=O)c2cccc(Cl)c2)c1)c1ccccc1 (stereo not drawn)
2 | > 40 µM (inactive) | – | CCn1cc2c(n1)c(=O)n(Cc1ccccc1)c(=O)n2CC(=O)Nc1ccc(C(C)C)cc1
3 | > 40 µM (inactive) | – | CCc1ccc(NC(=O)Cn2c(=O)n(Cc3ccccc3)c(=O)c3nn(CC)cc32)cc1
4 | > 40 µM (inactive) | – | COc1cccc(Cn2cnc3c(NS(=O)(=O)c4ccc(Cl)cc4)c(C)c(C)cc32)c1
5 | > 40 µM (inactive) | – | O=C(CSc1nnc2n(-c3ccccc3)c(=O)c3ccccc3n12)c1ccc(F)cc1
6 | > 40 µM (inactive) | – | COc1cc(NC(=O)Cc2ccccc2)ccc1NC(=O)c1cc2ccccc2o1
7 | > 40 µM (inactive) | – | CS(=O)(=O)c1cccc(C(=O)Nc2sc3c(c2C(N)=O)CCCC3)c1
8 | – | 4.71 | COc1cccc(NC(=O)Cn2cc(C(=O)c3ccc(C)cc3)c(=O)c3cc(Cl)ccc32)c1
9 | > 40 µM (inactive) | – | O=C(Cn1cc(C(=O)c2ccccc2)c(=O)c2cc(F)ccc21)Nc1ccc2c(c1)OCO2
10 | – | 4.43 | Cc1ccccc1NC(=O)Cn1c(=O)n(-c2ccc(CC(=O)NCCc3ccccc3)cc2)c(=O)c2sccc21
11 | > 40 µM (inactive) | – | O=C(CSc1ccc(-c2ccccc2)nn1)Nc1ccc(F)c([N+](=O)[O-])c1
12 | – | 5.35 | Cn1c2ccccc2c(=O)c2c(=O)n(-c3cccc(Cl)c3)c(-c3cccs3)nc21
13 | > 40 µM (inactive) | – | COc1cccc(CNc2ccc(-c3nc(-c4ccccc4)no3)nn2)c1
14 | > 40 µM (inactive) | – | N=C1/C(=C/c2cn(Cc3ccc(F)cc3)c3ccccc23)C(=O)N=C2SC(Cc3ccccc3)=NN12
15 | > 40 µM (inactive) | – | Cc1ccccc1-c1nc(-c2cn(CC(=O)Nc3ccccc3)cn2)no1
16 | > 40 µM (inactive) | – | COC(=O)c1ccc(C2c3[nH]c4ccccc4c3C[C@@H]3C(=O)N(c4ccc5c(c4)OCCO5)C(=O)N23)cc1 (stereo partly drawn)
17 | > 40 µM (inactive) | – | Cc1ccc(CS(=O)(=O)c2cn(CC(=O)NCCc3ccccc3)c3ccccc23)cc1
18 | > 40 µM (inactive) | – | O=C(Cc1ccc(-n2c(=O)c3ccccc3n(Cc3cccc(F)c3)c2=O)cc1)NC1CCCC1
19 | > 40 µM (inactive) | – | O=C(COc1ccc(Cl)cc1Cl)Nc1ccccc1-c1nc2ccccc2[nH]1
20 | > 40 µM (inactive) | – | NS(=O)(=O)c1cccc(NC(=O)/C=C/c2cn(-c3ccccc3)nc2-c2cccc([N+](=O)[O-])c2)c1
21 | > 40 µM (inactive) | – | O=C(Nc1cccc(-c2nc3cnccc3o2)c1)c1ccc(Br)o1
22 | > 40 µM (inactive) | – | CS(=O)(=O)c1ccc2nc(N(Cc3cccnc3)C(=O)c3ccc4ccccc4c3)sc2c1
23 | > 40 µM (inactive) | – | O=C(CCc1ccc(S(=O)(=O)N2CCOCC2)cc1)OCC(=O)c1ccc(-c2ccccc2)cc1
24 | > 40 µM (inactive) | – | COc1ccc(C)cc1NC(=O)Nc1nnc(CC(=O)NCc2ccccc2)s1
25 | > 40 µM (inactive) | – | COc1ccc(CNC(=O)CN2C(=O)CC(c3ccccc3)=Nc3ccccc32)cc1
26 | > 40 µM (inactive) | – | COc1cc(C(=O)Nc2ccc(C#N)cc2)ccc1OCC(=O)Nc1ccccc1C(F)(F)F
27 | > 40 µM (inactive) | – | CCOc1ccc(C(=O)CCC(=O)Nc2cccc(S(=O)(=O)Nc3cccc(Cl)c3)c2)cc1
28 | > 40 µM (inactive) | – | CCCc1nnc(C(=O)Nc2ccc(C(=O)NC(C)c3ccccc3)cc2)s1 (stereo not drawn)
29 | > 40 µM (inactive) | – | Cn1cc(NC(=O)Nc2cccc3ccccc23)c2ccccc21
30 | > 40 µM (inactive) | – | O=C(CSc1nnc2ccc3ccccc3n12)c1ccc(Cl)cc1

The next lines start with the molecule.

Row | SMILES | IC50 | pIC50
31 | Cc1ccc2[nH]c(=O)c(-c3nc4ccc(C)cn4c3NCc3ccc(F)cc3)cc2c1 | > 40 µM (inactive) | –
32 | Cc1ccc(NC(=O)CSc2ccc(NC(=O)c3ccc(C(=O)O)cc3C(=O)O)cc2)c(C)c1 | > 40 µM (inactive) | –
33 | Cc1ccc(NC(=O)Nc2ccc(C)n(CC(=O)Nc3ccc(C)c(C)c3)c2=O)cc1 | – | 4.41
34 | COc1ccc(NC(=O)COc2cc(C)nc(-c3ccc(C)cc3)n2)c(OC)c1 | > 40 µM (inactive) | –
35 | Cc1ccc(Nc2nc(O)c(CC(=O)Nc3ccccc3C)s2)cc1C | > 40 µM (inactive) | –
36 | COc1cc(Cl)c(NC(=O)c2cc(-c3ccccn3)n[nH]2)c(OC)c1 | > 40 µM (inactive) | –
37 | O=C(Nc1cccc(Cl)c1)c1ncn2c1CNS(=O)(=O)c1ccccc1-2 | > 40 µM (inactive) | –
38 | O=C(Nc1ccc2snnc2c1)Nc1ccc(F)cc1F | > 40 µM (inactive) | –
39 | CCOC(=O)c1ccc(NC(=O)Cn2c(=O)n(-c3ccc(CC(=O)NCc4ccco4)cc3)c(=O)c3ccccc32)cc1 | > 40 µM (inactive) | –
40 | O=C(Cn1c(=O)n(-c2ccc(Cl)cc2)c(=O)c2c3c(sc21)CCCC3)NCC1CCCO1 (stereo not drawn) | > 40 µM (inactive) | –
41 | O=C(CSc1nc2c(cnn2-c2ccccc2)c(=O)[nH]1)Nc1ccc(Cl)cc1F | – | 4.49
42 | CNC(=O)c1cc2nc(N(C)C)n(-c3ccc(F)cc3)c2s1 | > 40 µM (inactive) | –
43 | C[C@@H]1OC2=C(C(=O)c3cccc(O)c3C2=O)[C@H](O)[C@@H]1O | – | 6.08
44 | COc1cc(C2CC(=O)c3c([nH]c(C(=O)OCCOc4ccccc4)c3C)C2)cc(OC)c1OC (stereo not drawn) | > 40 µM (inactive) | –
45 | O=C(CCSc1nnnn1-c1ccccc1)Nc1cc(C(F)(F)F)ccc1Cl | > 40 µM (inactive) | –
46 | CCOC(=O)C1CCN(C(=O)c2ccc3c(c2)NC(=O)C2CCCN32)CC1 (stereo not drawn) | – | 5.70
47 | Cn1cc(-c2nc(C(=O)Nc3ccc(C#N)cc3)cs2)c2cccnc21 | > 40 µM (inactive) | –
48 | CCOc1ccc(-n2c(=O)c3sccc3n(CC(=O)Nc3cccc(C)c3)c2=O)cc1 | > 40 µM (inactive) | –
49 | Cc1ncc(-c2ccc3c(c2)OCO3)c(-c2nccs2)n1 | > 40 µM (inactive) | –
50 | O=c1oc2c3c(c(Cl)cc2c2c1CCCC2)OCN(Cc1ccccc1)C3 | > 40 µM (inactive) | –

Row | SMILES | IC50 | pIC50
51 | CCCCCCCc1cc(OC(=O)c2c(CCCCCCC)cc(O)cc2O[C@@H]2O[C@H](CO)[C@H](O)[C@H](O)[C@H]2O)cc(O)c1C(=O)O | – | 5.03
52 | CCn1cc2c(n1)c(=O)n(Cc1ccc(C)cc1)c(=O)n2CC(=O)Nc1ccc(F)cc1 | > 40 µM (inactive) | –
53 | Cc1[nH]n2c(=O)c(Cl)c(-c3ccccc3)nc2c1-c1ccccc1 | > 40 µM (inactive) | –
54 | CN(C(=O)C1(c2ccccc2)CC1)c1nc2c(s1)CCc1occc1-2 | > 40 µM (inactive) | –
55 | Cn1c(O)c(C2=Nc3ccccc3SC(c3cccc(O)c3)C2)c(=O)[nH]c1=O (stereo not drawn) | > 40 µM (inactive) | –
56 | CCNS(=O)(=O)c1ccc(-c2ccc(-n3cnnn3)cc2)cc1 | > 40 µM (inactive) | –
57 | Cc1cccc(C)c1NC(=O)Cn1c(=O)n(CCCCC(=O)NCc2ccc3c(c2)OCO3)c(=O)c2ccccc21 | > 40 µM (inactive) | –
58 | O=c1c2ccccc2nc(/C=C/c2ccco2)n1Cc1ccccc1 | > 40 µM (inactive) | –
59 | Cc1ccc2[nH]cc(S(=O)(=O)c3cc(F)cc(F)c3)c(=O)c2c1 | > 40 µM (inactive) | –
60 | CCCC(O)CCCCCCCc1cc(O)cc(O)c1C(=O)OC(CCC)CCCCCCCc1cc(O)cc(O)c1 (stereo not drawn) | > 40 µM (inactive) | –
61 | Cc1ccc(-c2n[nH]n3c2nc(=O)c2ccc(C(=O)NC4CCCCC4)cc23)cc1 | > 40 µM (inactive) | –
62 | N#Cc1cccc(NC(=O)c2[nH]nc3c2COc2ccccc2-3)c1 | – | 4.42
63 | COc1cc(OC)c(NC(=O)Cn2c(=O)n(Cc3ccccc3Cl)c(=O)c3cc(OC)c(OC)cc32)cc1Cl | > 40 µM (inactive) | –
64 | CCCCCCCCCC(CCCCCCCCCC(=O)O)O[C@H]1O[C@@H](COC(C)=O)[C@H](O)[C@@H](O)[C@H]1OC(=O)CC(=O)O (stereo partly drawn) | > 40 µM (inactive) | –
65 | C[C@@H]1CO[C@@H]2C3=C(C(=O)C=CC3=O)[C@H]3OC(=O)[C@@H]4CCC5[C@@H]1CCC52C34 (stereo partly drawn) | – | 4.60
66 | CC(=O)Nc1cccc(-c2cnc3sc(NC4CCCCC4)nn23)c1 | > 40 µM (inactive) | –
67 | O=C(Nc1ccc(-n2cccc2)cc1)c1cccc([N+](=O)[O-])c1 | > 40 µM (inactive) | –
68 | COc1ccc(/C=C/C(=O)Nc2nc3n(n2)C(c2ccccc2)CC(=O)N3)cc1 (stereo not drawn) | > 40 µM (inactive) | –
69 | O=C(/C=C/C=C/C=C/C1CCCCC1)NC1=C[C@@](O)(/C=C/C=C/C=C/C(=O)NC2=C(O)CCC2=O)[C@@H]2O[C@@H]2C1=O | > 40 µM (inactive) | –
70 | COc1cc(OC)cc(-c2nc(-c3cn(-c4cccc(F)c4)nn3)no2)c1 | – | 4.48

Row | SMILES | IC50 | pIC50
71 | COc1ccc(NC(=O)Cn2c(=O)n(CCCC(=O)NCCc3ccc(OC)c(OC)c3)c(=O)c3ccccc32)cc1Cl | > 40 µM (inactive) | –
72 | O=c1c(O)c(-c2ccc(O)c(O)c2)oc2cc(O)cc(O)c12 | – | 6.10
73 | CCCCCCCCC/C=C/C(=O)CCc1c(O)c(C=O)c2c(c1O)C(=O)OC2O (stereo not drawn) | – | 6.29
74 | COc1ccc(OC)c(NC(=O)Cn2c(=O)n(CC3CCC(C(=O)NCCc4ccccc4)CC3)c(=O)c3ccccc32)c1 (stereo not drawn) | > 40 µM (inactive) | –
75 | Cc1cccc(NC(=O)c2cc(-c3ccc(C)c(C)c3O)n[nH]2)c1 | > 40 µM (inactive) | –
76 | Cc1cccc(NC(=O)Nc2ccc(C)n(CC(=O)Nc3ccc(C)c(C)c3)c2=O)c1 | > 40 µM (inactive) | –
77 | N#Cc1cc(C(=O)c2cc(Cl)ccc2O)cn(-c2ccccn2)c1=O | > 40 µM (inactive) | –
78 | COC(=O)c1ccccc1NC(=O)CSc1nnc(CNc2ccc(F)cc2)n1CC1CCCO1 (stereo not drawn) | > 40 µM (inactive) | –
79 | COc1ccc(Nc2nc3c(S(=O)(=O)c4ccc(C)cc4)nnn3c3ccsc23)c(OC)c1 | > 40 µM (inactive) | –
80 | N#Cc1cn2c(nc1-c1ccc(Cl)cc1)nc1ccccc12 | > 40 µM (inactive) | –
81 | COC(=O)c1ccc(N2CCN(C(C)=O)CC2)c(NC(=O)COc2ccc([N+](=O)[O-])cc2)c1 | > 40 µM (inactive) | –
82 | COc1ccccc1-c1nc(-c2cn(-c3ccc(F)cc3)nn2)no1 | – | 4.56
83 | COc1ccccc1C(=O)N1CCC[C@H](Cn2nnc(-c3cccnc3)n2)C1 | > 40 µM (inactive) | –
84 | COc1ccc(Cl)cc1NC(=O)Cn1c(=O)n(CCCCC(=O)NCCc2ccccc2)c(=O)c2ccccc21 | > 40 µM (inactive) | –
85 | Cc1ccc(-c2cnc(C3CC3)o2)cc1S(=O)(=O)Nc1ccc(F)c(Cl)c1 | > 40 µM (inactive) | –
86 | CC/C=C\C/C=C\C/C=C\CCCCCCCC(=O)O | – | 4.75
87 | Cc1cccc(NC(=O)c2noc3c2CCc2sccc2-3)n1 | > 40 µM (inactive) | –
88 | Cc1cc(=O)n(CC(=O)Nc2ccccc2C)c(Nc2ccc(F)cc2)n1 | > 40 µM (inactive) | –
